22 molecules from patent US20260297083A1, “SUBSTITUTED ACETYLENE COMPOUND DERIVATIVES AND THEIR PHARMACEUTICAL USE” (AVELOS THERAPEUTICS INC., priority 2023, published 2026) can be followed below.

As usually defined, the pIC50 is the IC50 on a negative log10 scale, so that one unit is a factor of ten. Read a low pIC50 as a large IC50.

pIC50: −log10 of the molar value. Bounds are passed on as bounds.

The test system of the assay is DLD-1 BRCA2(−/−) Cell. As to the kind of experiment: Cell viability assay (Resazurin) in DLD1-BRCA2 cells. In kind it is cell-based. To be noted: Homo sapiens, DLD-1, 336 h, 14 days, 1,500 cells/well, final DMSO 1%. Summed up:
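DLD1-BRCA2 KG cells seeded at 1,500/well (parental 600/well) in RPMI-1640 with 10% FBS, compound added after 4 h (1% DMSO), media replaced every 3-4 days over 14 days at 37° C. Viability read by resazurin (0.1 mg/ml, 4 h) fluorescence at Ex/Em 560/590 nm; IC50 fitted.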
`Cc1cc(C(F)(F)F)cc(N2[C@H](C(=O)N(CC#Cc3cnc(-c4ncon4)cn3)c3ccc(F)c(C)c3)CCS2(=O)=O)n1` [Example 58, (S)-N-(3-(5-(1,2,4-oxadiazol-3-yl)pyrazin-2-yl)prop-2-yn-1-yl)-N-(4-fluoro-3-methylphenyl)-2-(6-methyl-4-(trifluoromethyl)pyridin-2-yl)isothiazolidine-3-carboxamide 1,1-dioxide] showed a pIC50 of over 6.00.

As to `Cc1cc(C(F)(F)F)cc(N2[C@H](C(=O)N(CC#Cc3cnc(C#N)cn3)c3ccc(F)c(C)c3)CCS2(=O)=O)n1` [Example 59, (S)-N-(3-(5-cyanopyrazin-2-yl)prop-2-yn-1-yl)-N-(4-fluoro-3-methylphenyl)-2-(6-methyl-4-(trifluoromethyl)pyridin-2-yl)isothiazolidine-3-carboxamide 1,1-dioxide], the negative logarithm of the IC50 (pIC50) is over 6.00.

Regarding `Cc1cc(C(F)(F)F)cc(N2[C@H](C(=O)N(CC#Cc3cnc(C(=O)O)cn3)c3ccc(F)c(C)c3)CCS2(=O)=O)n1` [Example 60, (S)-5-(3-(N-(4-fluoro-3-methylphenyl)-2-(6-methyl-4-(trifluoromethyl)pyridin-2-yl)-1,1-dioxidoisothiazolidine-3-carboxamido)prop-1-yn-1-yl)pyrazine-2-carboxylic acid], the negative logarithm of the IC50 (pIC50) was under 5.29.

As for `Cc1cc(C(F)(F)F)cc(N2[C@H](C(=O)N(CC#Cc3cnc(C(N)=O)cn3)c3ccc(F)c(C)c3)CCS2(=O)=O)n1` [Example 61, (S)-N-(3-(5-carbamoylpyrazin-2-yl)prop-2-yn-1-yl)-N-(4-fluoro-3-methylphenyl)-2-(6-methyl-4-(trifluoromethyl)pyridin-2-yl)isothiazolidine-3-carboxamide 1,1-dioxide], the negative-log IC50 (pIC50) was under 5.29.

As to `Cc1cc(C(F)(F)F)cc(N2[C@H](C(=O)N(CC#Cc3cnc(C(N)=O)c(C)n3)c3ccc(F)c(C)c3)CCS2(=O)=O)n1` [Example 62, (S)-N-(3-(5-carbamoyl-6-methylpyrazin-2-yl)prop-2-yn-1-yl)-N-(4-fluoro-3-methylphenyl)-2-(6-methyl-4-(trifluoromethyl)pyridin-2-yl)isothiazolidine-3-carboxamide 1,1-dioxide], the pIC50 was over 6.00.

Molecule `Cc1cc(C(F)(F)F)cc(N2[C@H](C(=O)N(CC#Cc3cncc(C(N)=O)n3)c3ccc(F)c(C)c3)CCS2(=O)=O)n1` [Example 63, (S)-N-(3-(6-carbamoylpyrazin-2-yl)prop-2-yn-1-yl)-N-(4-fluoro-3-methylphenyl)-2-(6-methyl-4-(trifluoromethyl)pyridin-2-yl)isothiazolidine-3-carboxamide 1,1-dioxide] had a pIC50 of over 6.00.

For the molecule `Cc1cc(C(F)(F)F)cc(N2[C@H](C(=O)N(CC#Cc3nccnc3C(N)=O)c3ccc(F)c(C)c3)CCS2(=O)=O)n1` [Example 64, (S)-N-(3-(3-carbamoylpyrazin-2-yl)prop-2-yn-1-yl)-N-(4-fluoro-3-methylphenyl)-2-(6-methyl-4-(trifluoromethyl)pyridin-2-yl)isothiazolidine-3-carboxamide 1,1-dioxide], the pIC50 is over 6.00.

In turn, `Cc1cc(C(F)(F)F)cc(N2[C@H](C(=O)N(CC#Cc3cnc(S(N)(=O)=O)cn3)c3ccc(F)c(C)c3)CCS2(=O)=O)n1` [Example 65, (S)-N-(4-fluoro-3-methylphenyl)-2-(6-methyl-4-(trifluoromethyl)pyridin-2-yl)-N-(3-(5-sulfamoylpyrazin-2-yl)prop-2-yn-1-yl)isothiazolidine-3-carboxamide 1,1-dioxide] had a pIC50 of over 6.00.

For the molecule `Cc1cc(C(F)(F)F)cc(N2[C@H](C(=O)N(CC#Cc3cncc(S(N)(=O)=O)n3)c3ccc(F)c(C)c3)CCS2(=O)=O)n1` [Example 66, (S)-N-(4-fluoro-3-methylphenyl)-2-(6-methyl-4-(trifluoromethyl)pyridin-2-yl)-N-(3-(6-sulfamoylpyrazin-2-yl)prop-2-yn-1-yl)isothiazolidine-3-carboxamide 1,1-dioxide], the pIC50 is over 6.00.

`CNC(=O)c1cnc(C#CCN(C(=O)[C@@H]2CCS(=O)(=O)N2c2cc(C(F)(F)F)cc(C)n2)c2ccc(F)c(C)c2)cn1` [Example 67, (S)-N-(4-fluoro-3-methylphenyl)-2-(6-methyl-4-(trifluoromethyl)pyridin-2-yl)-N-(3-(5-(methylcarbamoyl)pyrazin-2-yl)prop-2-yn-1-yl)isothiazolidine-3-carboxamide 1,1-dioxide]: the negative logarithm of the IC50 (pIC50) is under 5.29.

For the molecule `Cc1cc(C(F)(F)F)cc(N2[C@H](C(=O)N(CC#Cc3cnc(C(=O)N(C)C)cn3)c3ccc(F)c(C)c3)CCS2(=O)=O)n1` [Example 68, (S)-N-(3-(5-(dimethylcarbamoyl)pyrazin-2-yl)prop-2-yn-1-yl)-N-(4-fluoro-3-methylphenyl)-2-(6-methyl-4-(trifluoromethyl)pyridin-2-yl)isothiazolidine-3-carboxamide 1,1-dioxide], the pIC50 was over 6.00.

Molecule `Cc1cc(C(F)(F)F)cc(N2[C@H](C(=O)N(CC#Cc3cnc(C(=O)N4CCOCC4)cn3)c3ccc(F)c(C)c3)CCS2(=O)=O)n1` [Example 69, (S)-N-(4-fluoro-3-methylphenyl)-2-(6-methyl-4-(trifluoromethyl)pyridin-2-yl)-N-(3-(5-(morpholine-4-carbonyl)pyrazin-2-yl)prop-2-yn-1-yl)isothiazolidine-3-carboxamide 1,1-dioxide] showed a pIC50 of over 6.00.

On to `Cc1cc(C(F)(F)F)cc(N2[C@H](C(=O)N(CC#Cc3cncc(C(=O)N4CCOCC4)n3)c3ccc(F)c(C)c3)CCS2(=O)=O)n1` [Example 70, (S)-N-(4-fluoro-3-methylphenyl)-2-(6-methyl-4-(trifluoromethyl)pyridin-2-yl)-N-(3-(6-(morpholine-4-carbonyl)pyrazin-2-yl)prop-2-yn-1-yl)isothiazolidine-3-carboxamide 1,1-dioxide], for which the pIC50 is 5.30 to 5.96.

With `Cc1cc(C(F)(F)F)cc(N2[C@H](C(=O)N(CC#Cc3cncc(C(=O)N4CC5CCC(C4)O5)n3)c3ccc(F)c(C)c3)CCS2(=O)=O)n1` [Example 71, (3S)-N-(3-(6-(8-oxa-3-azabicyclo[3.2.1]octane-3-carbonyl)pyrazin-2-yl)prop-2-yn-1-yl)-N-(4-fluoro-3-methylphenyl)-2-(6-methyl-4-(trifluoromethyl)pyridin-2-yl)isothiazolidine-3-carboxamide 1,1-dioxide], the pIC50 is over 6.00.

Take `Cc1cc(C(F)(F)F)cc(N2[C@H](C(=O)N(CC#Cc3cncc(C(=O)N4CCNCC4)n3)c3ccc(F)c(C)c3)CCS2(=O)=O)n1` [Example 72, (S)-N-(4-fluoro-3-methylphenyl)-2-(6-methyl-4-(trifluoromethyl)pyridin-2-yl)-N-(3-(6-(piperazine-1-carbonyl)pyrazin-2-yl)prop-2-yn-1-yl)isothiazolidine-3-carboxamide 1,1-dioxide]: the pIC50 was over 6.00.

Molecule `Cc1cc(C(F)(F)F)cc(N2[C@H](C(=O)N(CC#Cc3cncc(C(=O)N4CC5CCC(C4)N5)n3)c3ccc(F)c(C)c3)CCS2(=O)=O)n1` [Example 73, (3S)-N-(3-(6-(3,8-diazabicyclo[3.2.1]octane-3-carbonyl)pyrazin-2-yl)prop-2-yn-1-yl)-N-(4-fluoro-3-methylphenyl)-2-(6-methyl-4-(trifluoromethyl)pyridin-2-yl)isothiazolidine-3-carboxamide 1,1-dioxide] had a negative-log IC50 (pIC50) of over 6.00.

As for `Cc1cc(C(F)(F)F)cc(N2[C@H](C(=O)N(CC#Cc3cncc(C(=O)N4C[C@H](C)N[C@@H](C)C4)n3)c3ccc(F)c(C)c3)CCS2(=O)=O)n1` [Example 74, (S)-N-(3-(6-((3S,5S)-3,5-dimethylpiperazine-1-carbonyl)pyrazin-2-yl)prop-2-yn-1-yl)-N-(4-fluoro-3-methylphenyl)-2-(6-methyl-4-(trifluoromethyl)pyridin-2-yl)isothiazolidine-3-carboxamide 1,1-dioxide], the negative logarithm of the IC50 (pIC50) is over 6.00.

`Cc1cc(C(F)(F)F)cc(N2[C@H](C(=O)N(CC#Cc3cc(N4CCOCC4)ncn3)c3ccc(F)c(C)c3)CCS2(=O)=O)n1` [Example 75, (S)-N-(4-fluoro-3-methylphenyl)-2-(6-methyl-4-(trifluoromethyl)pyridin-2-yl)-N-(3-(6-morpholinopyrimidin-4-yl)prop-2-yn-1-yl)isothiazolidine-3-carboxamide 1,1-dioxide] showed a pIC50 of over 6.00.

`Cc1cc(C(F)(F)F)cc(N2[C@H](C(=O)N(CC#Cc3cc(N4CCOCC4)nc(C(F)(F)F)n3)c3ccc(F)c(C)c3)CCS2(=O)=O)n1` [Example 76, (S)-N-(4-fluoro-3-methylphenyl)-2-(6-methyl-4-(trifluoromethyl)pyridin-2-yl)-N-(3-(6-morpholino-2-(trifluoromethyl)pyrimidin-4-yl)prop-2-yn-1-yl)isothiazolidine-3-carboxamide 1,1-dioxide]: the pIC50 is over 6.00.

The molecule `Cc1cc(C(F)(F)F)cc(N2[C@H](C(=O)N(CC#Cc3cnc(N4CCOCC4)nc3)c3ccc(F)c(C)c3)CCS2(=O)=O)n1` [Example 77, (S)-N-(4-fluoro-3-methylphenyl)-2-(6-methyl-4-(trifluoromethyl)pyridin-2-yl)-N-(3-(2-morpholinopyrimidin-5-yl)prop-2-yn-1-yl)isothiazolidine-3-carboxamide 1,1-dioxide] had a negative logarithm of the IC50 (pIC50) of over 6.00.

The molecule `Cc1cc(C(F)(F)F)cc(N2[C@H](C(=O)N(CC#Cc3cnc(C(N)=O)nc3)c3ccc(F)c(C)c3)CCS2(=O)=O)n1` [Example 78, (S)-N-(3-(2-carbamoylpyrimidin-5-yl)prop-2-yn-1-yl)-N-(4-fluoro-3-methylphenyl)-2-(6-methyl-4-(trifluoromethyl)pyridin-2-yl)isothiazolidine-3-carboxamide 1,1-dioxide] had a pIC50 of over 6.00.

Molecule `Cc1cc(C(F)(F)F)cc(N2[C@H](C(=O)N(CC#Cc3ncc(N4CCOCC4)cn3)c3ccc(F)c(C)c3)CCS2(=O)=O)n1` [Example 79, (S)-N-(4-fluoro-3-methylphenyl)-2-(6-methyl-4-(trifluoromethyl)pyridin-2-yl)-N-(3-(5-morpholinopyrimidin-2-yl)prop-2-yn-1-yl)isothiazolidine-3-carboxamide 1,1-dioxide] gave a pIC50 of over 6.00.
